US20210078972A1, “QUINOLINE OR QUINAZOLINE COMPOUND AND APPLICATION THEREOF” (HAIHE BIOPHARMA CO., LTD., priority 2018, published 2021)

Tests used:
MV4-11 cells = assay: MV4-11 cell proliferation, CCK-8; assay type: cell-based; conditions: Homo sapiens, 72 h, read-out: IC50 of inhibition of proliferation of MV4-11 cells
Method: The inhibitory effects of the compounds on the proliferation of MV4-11 cells were detected by a CCK-8 cell counting kit (Dojindo). The specific steps are as follows: MV4-11 cells in the logarithmic phase were seeded into a 96-well culture plate at a suitable density for 90 μL per well. After overnight cultivation, the compounds at different concentrations were added to act for 72 hr, and a solvent control group was set (negative control). After 72 h of the compounds acting on the cells, the effects of the compounds on cell proliferation were detected using the CCK-8 cell counting kit (Dojindo). 10 μL of CCK-8 reagent was added to each well and the plate was placed in an incubator at 37° C. for 2-4 hours. After that, a full-wavelength microplate enzyme-labeling instrument SpectraMax 190 was used to read with a measurement wavelength of 450 nm.
The inhibition rate (%) of the compound on tumor cell growth was calculated by the following formula:
Inhibition rate (%)=(OD control well−OD administration well)/OD control well×100%
The IC50 values were obtained by regression with the four-parameter method using the software attached to the enzyme-labeling instrument.

[1] = tested on: Mixed primary male CD-1 mouse hepatocytes; assay: Metabolism in mouse hepatocytes, UPLC-UV/Q-TOF MS; assay type: in vitro ADME; conditions: 180 min
Method: In this example, a UPLC-UV/Q-TOF MS method was used to evaluate the differences in the metabolic processes of TL134 in hepatocytes of five species of human, monkey, canine, rat, and mouse. It provides a reference for the selection of preclinical pharmacokinetics and studies on animal species safety evaluation.
The total volume of each incubation sample was 100 μL, the medium was WME medium (pH 7.4), and the incubation sample included hepatocytes with a cell density of 1.0×10^6 cells/mL and TL134 with a final concentration of 3.0 μM; the negative control sample was incubated with thermal-inactivated mixed hepatocytes (without cell counting) of five species of animals and TL134, and the buffer control sample was incubated with WME medium and TL134. All samples were incubated at 37° C. for 180 min, and then 100 μL of ice-cold acetonitrile was added to stop the reaction. The samples were stored at −70° C. for ready to be tested, and all incubation samples were double samples.
Triple TOF 5600′ quadrupole-time-of-flight tandem mass spectrometer (Q-TOF MS), equipped with electrospray ionization source (ESI source) and CDS automatic calibration system, AB SCIEX Company, USA; Acquity UPLC liquid chromatography system, including binary infusion pump, autosampler, column oven, degasser and TUV ultraviolet detector, Waters Company, USA. […]

IC50 (MV4-11 cells): < 0.4 nM | prototype drug metabolized, judging from the UV chromatographic peak areas [1]: ~3.0%
SMILES: COc1cc2c(Oc3ccc(NC(=O)c4c(C)n(C)c5ccc(OC(F)(F)F)cc5c4=O)cc3F)ncnc2cc1OCCCN1CCOCC1 [TL-134, N-(3-fluoro-4-((6-methoxy-7-(3-morpholinopropoxy)quinazolin-4-yl)oxy)phenyl)-1,2-dim ethyl-4-oxo-6-(trifluoromethoxy)-1,4-dihydroquinoline-3-carboxamide]
